Reference: patent US11547652B2, “Combination products and cosmetic compositions for controlling skin disorders and skin aging that affect keratinocytes and/or fibroblasts and the dermis” (NUTRICOS Technologies, priority 2014, dated 2023)

Columns and labels:
[1] = tested on: NHDF cells (Normal Human Dermal Fibroblasts); experiment: Hyaluronic acid production by NHDF cells (ELISA on supernatant); type: cell-based; conditions: 72 hours, glucosamine 0.1 to 100 μg/ml, hyaluronic acid 40 to 6000 ng/ml, source of collagen and hyaluronic acid 4 to 4000 ng/ml, FIG. 2
Method: Normal human dermal fibroblasts (NHDF) were cultured at 37° C. under 5% CO2 in a DMEM culture medium supplemented with glutamine (2 mM); calf serum (1%), penicillin (50 U/ml) and streptomycin ([…]). Glucosamine (0.1 to 100 μg/ml) and/or hyaluronic acid (from 40 to 6000 ng/ml) and/or a source of collagen and hyaluronic acid (in a ratio of between 0.07% and 15%) at concentrations ranging from 4 to 4000 ng/ml were then added to the cultivation medium alone or in combination. After 72 hours of cultivation under these conditions, the supernatant was collected to quantify the hyaluronic acid produced by the cells using an ELISA Duoset Hyaluronan kit marketed by the company R & D System (DY3614 reference).

[2] = tested on: NHEK cells (Normal Human Epidermal Keratinocytes); experiment: Hyaluronic acid production by NHEK cells (ELISA on supernatant); type: cell-based; conditions: 72 hours of cultivation, hyaluronic acid 40 to 6000 ng/ml, glucosamine sulfate 0.25 to 25 μg/ml, FIG. 1
Method: Normal human epidermal keratinocytes were cultured at 37° C. under 5% CO2 in a medium keratinocyte-SFM culture, supplemented with epidermal growth factor (EGF; 0.25 ng/ml), a pituitary extract (25 μg/ml) and an antibiotic (gentamicin 25 μg/ml) in 96-well plates for 24 h without stimulation. Glucosamine and/or hyaluronic acid are then added to the cultivation medium alone or in combination at concentrations of 40 to 6000 ng/ml hyaluronic acid and 0.25 to 25 μg/ml to glucosamine sulfate. After 72 hours of cultivation under these conditions, the supernatant was collected to quantify the hyaluronic acid produced by the cells using an ELISA Duoset Hyaluronan kit marketed by the company R & D System (DY3614 reference).

Compound | hyaluronic acid production by human fibroblasts in vitro [1] | hyaluronic acid production by human keratinocytes in vitro [2]
N[C@H]1C(O)O[C@H](CO)[C@@H](O)[C@@H]1O.O=S(=O)(O)O (stereo partly shown) [glucosamine sulfate] | lack of stimulation | induction of hyaluronic acid production
hyaluronic acid | did not stimulate the synthesis of hyaluronic acid | does not stimulate the synthesis of hyaluronic acid
